In patent publication EP0286418A1, “Anti-retroviral agents and delivery systems for the same” (priority 1987, dated 1988):

Experiments:
[1] = leakage from liposomes at 37°C in DMEM-GG-FCS; type: physicochemical
Experimental: The release of liposome contents as a function of time was assessed by centrifugal elution of free ddCTP through Centrifree filters (Amicon, Danvers, Mass., USA). Typically, 100 microliters of suspension was centrifuged at 1500 G for about 10 minutes, 100 microliters additional phosphate-buffered saline was added, and the filter was again spun for about 10 minutes. Pooled filtrate was counted for ³H-ddCTP to determine released drug, and the filter itself was similarly counted to establish the mass balance. Very little ¹⁴C-cholesteryl oleate was ever found in the filtrate, indicating that liposomal lipid was not passing through the filter. […] Leakage tests were also conducted under conditions mimicking those of the viral experiments infra, i.e., in tissue culture plates with 96 flat-bottom wells (Costar, Cambridge, Mass., USA) at 37°C in a CO₂ incubator in Dulbecco's Minimal Eagles Medium supplemented with gentamycin, glutamine, and 10% fetal calf serum (DMEM-GG-FCS). […] In contrast, 50% of the ddC was released within 1 hour, and 95% within 4 hours.

monocytes [2] = experiment: percent lysis of Candida albicans by monocytes; type: cell-based, Human; settings: effect on monocyte function
Experimental: (§1) Human peripheral blood mononuclear cells were obtained by standard procedures employing continuous flow cell separation (leukapheresis), such as described in Wahl, et al., Cellular Immunol. 85:373-383 (1984). The preparation was diluted in phosphate-buffered saline and layered onto gradients of Ficoll-Paque (Pharmacia-PL Biochemicals, Piscataway, N.J., USA). After centrifugation, mononuclear cells were pipetted from the interface, washed, and suspended in DMEM-GG-FCS. They were then fractionated by countercurrent centrifugal elutriation. The procedure comprises the Beckman elutriation system including a J-21 Beckman Centrifuge, a JE-6 elutriator rotor, a stroboscope, and a Masterflex pump and pumphead. The cells were loaded into the rotor and fractionated by elution at increasing flow rates. Fractions 7 and 8, highly enriched for monocytes, were pooled for use.

monocytes [3] = experiment: superoxide generation by monocytes; type: cell-based, Human
Experimental: as §1

monocytes [4] = experiment: production of prostaglandin E2 by monocytes; type: cell-based, Human; settings: effect on monocyte function
Experimental: as §1

[5] = trypan blue exclusion test; type: cell-based; settings: human, 8.e6 and u.1 cells; at all doses; read-out: viable cells (trypan blue exclusion)
Description: Tritiated thymidine uptake was used to assess toxic effects of ddCTP liposomes on the lymphoid (8.E6) and promonocytic (U.1) clones. […] As judged by trypan blue exclusion test, the cells remained more than 90% viable at all doses.

[6] = biological target: T1, HIV reverse transcriptase (Human immunodeficiency virus type 1 group M subtype B, UniProt P03367); experiment: reverse transcriptase assay on supernatant of chronically HIV-producing cells; type: cell-based; settings: for activity at 10 µg/mL: dose 10.0 micrograms/ml; for activity at 0.01 µg/mL: dose 0.01 micrograms/ml; for activity at 0.1 µg/mL: dose 0.1 micrograms/ml; for activity at 1 µg/mL: dose 1.0 micrograms/ml
T1 construct: endogenous in cells; host or cells: U.1 (clone of promonocytic U937) and 8.E6 (clone of lymphoid A.301), chronically HIV-producing
Experimental: Liposomes were tested for toxic effect on two types of cells which chronically produce HIV. One clone (8.E6) was derived from the lymphoid cell line A.301; the other clone (U.1) was derived from the promonocytic line U937. Cells (1×10⁶/well) in RPMI medium with 10% fetal calf serum were pipetted into a flat-bottom 96-well microtiter plate. To each well was added 50 microliters of solution containing ddCTP-liposomes, empty liposomes, free ddCTP or phosphate buffered saline. Fifty microliters of phorbol myristyl acetate (PMA) was then added to each well to a final concentration of 10⁻⁹ M for stimulation, or else 50 microliters of saline was added for non-stimulated configurations. The plates were incubated at 37°C in 7% CO₂ for about 48 hours. 100 microliters of supernatant was then taken from each well to analyze for reverse transcriptase (RT) activity using polyadenylate and oligo-deoxythymidine. To perform the RT assay, 10 microliters of supernatant containing RT was added to a cocktail containing poly A, oligo dT (Pharmacia, Inc. Piscataway, N.J., USA) MgCl₂, and ³²P-dTTP (Amersham) and incubated for 2 hours at 37°C. Ten microliters of the cocktail was then spotted onto DE81 paper, dried, and washed in 1X saline sodium citrate buffer. The paper was then dried, cut and counted on a Beckman LS 7000 scintillation counter.

in vitro = in vitro ADME
Experimental: When the same incubations were done in the absence of monocytes, the results were essentially identical.
Studies were conducted under conditions mimicking those of anti-viral tests. ddCMP: dideoxycytidine monophosphate. Data points represent integrals under HPLC peaks from gradient elution on a VYDAC nucleotide column.

adherent human monocytes = experiment: uptake of dideoxynucleotides; type: cell-based; settings: 37°C, drug 1 uM
Experimental: Uptake of ₃H-deoxyctidine triphosphate (³H-dCTP) was used as an indicator of the uptake of vesicle contents by cells. Uptake experiments were done by plating 5 × 10⁶ monocytes in each well of a 6-well microtiter plate (Costar) and adding reagents one or two days later. Incubations were done in DMEM-GG-FCS at 37°C. The rate of increase of dCTP content in the cells over a 9-hour period (Table 7) averaged 0.29 pmole/million cells/hr with liposomes containing 4 mM EPC. Other experiments established that ddCTP and ddCMP are not readily taken up by the cells (Table 9).

HIV-1 (Ba-L) = experiment: inhibition of HIV proliferation in monocytes (p24 antigen ELISA); type: cell-based; settings: HIV-infected human monocytes; compared with ddCTP liposomes
[7] = PMA-stimulated (1 nM) U.1 cells, normalized by average of empty liposome controls
[8] = U.1 cells, no PMA, relative to controls with no drug

## Nc1ccn([C@H]2CC[C@@H](COP(=O)(O)OP(=O)(O)OP(=O)(O)O)O2)c(=O)n1 [ddCTP, 2ʹ,3ʹ-dideoxycytidine-5ʹ-triphosphate]
[1]; absence of cells, 0 h
  % of total drug in liposomes: 85.6%
[1]; absence of cells, 0.16 h
  % of total drug in liposomes: 74.3%
[1]; absence of cells, 0.32 h
  % of total drug in liposomes: 78.5%
[1]; absence of cells, 1 h
  % of total drug in liposomes: 77.2%
[1]; absence of cells, 2 h
  % of total drug in liposomes: 82.1%
[1]; absence of cells, 4 h
  % of total drug in liposomes: 78.5%
[1]; absence of cells, 24 h
  % of total drug in liposomes: 81.7%
[1]; absence of cells, 48 h
  % of total drug in liposomes: 75.7%
[1]; absence of cells, 72 h
  % of total drug in liposomes: 87.4%
[1]; over a period of 72 hours, presence or absence of adherent monocytes
  leakage from liposomes: Very little leakage
[1]; with adherent human monocytes, 0 h
  % of total drug in liposomes: 84.4%
[1]; with adherent human monocytes, 0.16 h
  % of total drug in liposomes: 83.8%
[1]; with adherent human monocytes, 0.32 h
  % of total drug in liposomes: 84.4%
[1]; with adherent human monocytes, 1 h
  % of total drug in liposomes: 78.0%
[1]; with adherent human monocytes, 2 h
  % of total drug in liposomes: 83.3%
[1]; with adherent human monocytes, 4 h
  % of total drug in liposomes: 82.9%
[1]; with adherent human monocytes, 24 h
  % of total drug in liposomes: 75.9%
[1]; with adherent human monocytes, 48 h
  % of total drug in liposomes: 68.0%
[1]; with adherent human monocytes, 72 h
  % of total drug in liposomes: 78.4%
Monocytes [2]
  percent lysis of Candida albicans: No consistent effects
Monocytes [3]; ddCTP 2.2 uM
  Superoxide: 1.21 (.02) nmoles/well
Monocytes [3]; ddCTP 11 uM
  Superoxide: 0.85 (.04) nmoles/well
Monocytes [3]; ddCTP 56 uM
  Superoxide: 0.77 (.04) nmoles/well
Monocytes [3]; ddCTP .0 uM
  Superoxide: 1.19 (.06) nmoles/well
Monocytes [3]; ddCTP .018 uM
  Superoxide: 1.33 (.05) nmoles/well
Monocytes [3]; ddCTP .09 uM
  Superoxide: 1.42 (.10) nmoles/well
Monocytes [3]; ddCTP .45 uM
  Superoxide: 1.33 (.08) nmoles/well
Monocytes [4]
  production of prostaglandin E2: No consistent effects
[5]
  viability: > 90%
[6]; 48 h, U.1 cells, no PMA, relative to controls with no drug
  activity at 10 µg/mL: 69 ± 21%
[6]; [7]
  activity at 0.01 µg/mL: 84%
  activity at 0.1 µg/mL: 96%
  activity at 1 µg/mL: 75%
  activity at 10 µg/mL: 75%
[6]; [8]
  activity at 0.01 µg/mL: 67 ± 19%
  activity at 0.1 µg/mL: 80 ± 12%
  activity at 1 µg/mL: 61 ± 4%
In vitro
  conversion to ddCMP: largely converted to ddCMP
  fraction present as ddC: 23%
In vitro; 10% fetal calf serum medium, 0.5 h
  Percent of total drug 3H as ddCTP: 39.6%
In vitro; serum-containing medium with cells, 4 h
  Percent of total drug 3H as ddCTP: 1.4%
In vitro; serum-containing medium with cells, 6 h
  Percent of total drug 3H as ddCTP: 1.4%
In vitro; serum-containing medium without cells, 0.75 h
  Percent of total drug 3H as ddCTP: 20.3%
In vitro; serum-containing medium without cells, 1.5 h
  Percent of total drug 3H as ddCTP: 19.5%
In vitro; serum-containing medium without cells, 4 h
  Percent of total drug 3H as ddCTP: 2.7%
In vitro; serum-containing medium without cells, 6 h
  Percent of total drug 3H as ddCTP: 0.6%
In vitro; serum-containing medium without cells, Percent of total drug 3H as ddCTP
  remaining at 72 h: 0%
Adherent human monocytes; 0. h
  pmole drug/1 million cells (mean): 0.15 pmole drug/1 million cells
Adherent human monocytes; 0.33 h
  pmole drug/1 million cells (mean): 0.09 pmole drug/1 million cells
Adherent human monocytes; 1.00 h
  pmole drug/1 million cells (mean): 0.09 pmole drug/1 million cells
Adherent human monocytes; 3.00 h
  pmole drug/1 million cells (mean): 0.11 pmole drug/1 million cells
Adherent human monocytes; 6.00 h
  pmole drug/1 million cells (mean): 0.33 pmole drug/1 million cells
Adherent human monocytes; 9.00 h
  pmole drug/1 million cells (mean): 0.43 pmole drug/1 million cells
Adherent human monocytes; 20.00 h
  pmole drug/1 million cells (mean): 0.66 pmole drug/1 million cells
HIV-1 (Ba-L)
  activity against p24 expression: active at similar concentrations
